Data taken from US20190231793A1, “USE OF HARRINGTONINES IN THE TREATMENT OF BREAST CANCER, IN PARTICULAR TRIPLE-NEGATIVE BREAST CANCER” (priority 2016, published 2019).
Read-outs that look alike come from different tables or passages of the source.

Experiments:
[1] = cytotoxic = toxicity for tumor cells in culture; anticancer = data obtained in clinical trials; cited from earlier work
CAL-51 [2] = test: Cell viability (SRB), inhibition of cell proliferation; type: cell-based
Protocol: (§1) Cell Lines: CAL-51 (PIK3CA mutated) and MDA-MB-157 (without apparent genomic alteration of the PI3K-AKT-mTOR axis (NF1, TP53 mutated) were cultured in DMEM+10% FCS+200 μg/ml gentamicin, in humidified atmosphere, at 5% CO 2.
(§2) Drug: commercial HHT (Sigma-Aldrich), purified by recrystallization according to Liu's technique [U.S. Pat. No. 62,073, 14 May 1987], was provided free of charge by LeukePharma (Le Mans, France). The stock solution of 20 mM HHT citrate was obtained by dissolution in citric acid (Sigma-Aldrich), in equimolar amount or by direct dissolution of the crystalline homoharringtonine salt in sterile purified water. The following dilutions of this stock solution were performed using sterile PBS buffer. All of the solutions was stored at −80° C.
(§3) Cell viability: The cells were seeded in the 96-well plates at the concentration of 5000 cells/well (3.3×10^4/ml) for the MDA-MB-lines, and at the concentration of 1000 cells/well (6.6×10 3 ml) for CAL-51. After 24 hours of rest, at the confluence of 50-60%, the cells were treated with increasing concentrations of HHT for 24 h, 48 h and 72 h. After washing twice with sterile PBS and 48 h rest, the cells were fixed with trichloroacetic acid. After the addition of […] (SRB), the absorbance was measured at 540 nm (Multiskan™ FC plate photometer, Thermo Scientific). IC50s were calculated by CompuSyn (Chou & Talalay, ComboSyn Inc., Paramus, N.J., USA).

MDA-MB-157 [3] = test: as above; type: cell-based
Protocol: as §1, §2, §3

MDA-MB-231 [4] = test: as above; type: cell-based; conditions: Homo sapiens; for viability at 0.05 µM / viability at 0.1 µM: read-out: viable fraction (Fv=% of viable cells)
Protocol: (§4) MDA-MB-468 (PTEN, RB1, SMAD4, mutated TP53, amplified EGFR/ERBB1) and MDA-MB-231 (highly metastatic, without alteration of PI3K-Akt-mTOR; KRAS, BRAF, CDKN2A, PDGFRA, (NF2, Mutated TP53) were cultured in Liebowitz's medium+10% FCS+200 μg/ml gentamycin, in a CO2-free atmosphere
as §2, §3

MDA-MB-468 [5] = test: as above; type: cell-based
Protocol: as §4, §2, §3

CAL-51 [6] = test: Cell cycle by flow cytometry; type: cell-based; conditions: CAL-51, 48 hours, 20 nM HHT
Protocol: (§5) Cell cycle and apoptosis: the number of cells in different phases of the cell cycle or in apoptosis was determined by flow cytometry using FITC Annexin V Apoptosis Detection Kit 1 (BD Biosciences) and following the manufacturer's recommendations. Briefly, 3×10^4 cells of each line were seeded in 6-well plates and, after 24 h resting, treated with increasing concentrations of HHT for 6-72 h, then washed and incubated with propidium iodide and or with FITC annexin V). The fluorescence was measured using a BD LSH II cytofluorometer (BD Biosciences).

MDA-MB-157 [7] = test: Cell cycle by flow cytometry; type: cell-based; conditions: MDA-MB-157, 48 hours, 50 nM HHT
Protocol: as §5

MDA-MB-231 [8] = test: Cell cycle by flow cytometry; type: cell-based; conditions: MDA-MB-231, 48 hours, 20 nM or 50 nM HHT
Protocol: as §5

MDA-MB-468 [9] = test: Cell cycle by flow cytometry; type: cell-based; conditions: MDA-MB-468, 48 hours, 20 nM or 50 nM HHT
Protocol: as §5

CAL-51 [10] = test: Apoptosis by flow cytometry (FITC Annexin V); type: cell-based; conditions: increasing concentrations, 6-72 h
Protocol: as §5

MDA-MB-157 [11] = test: Apoptosis by flow cytometry (FITC Annexin V); type: cell-based; conditions: increasing concentrations, 6-72 h
Protocol: as §5

MDA-MB-231 [12] = test: Apoptosis by flow cytometry (FITC Annexin V); type: cell-based; conditions: regardless of concentration or incubation time
Protocol: as §5

MDA-MB-468 [13] = test: Apoptosis by flow cytometry (FITC Annexin V); type: cell-based; conditions: increasing concentrations, 6-72 h
Protocol: as §5

Mcl-1 = test: Western blot, expression of apoptosis regulatory proteins; type: cell-based; conditions: 100 nM HHT; all lines analyzed except MDA-MB-231 (CAL-51, MDA-MB-468, MDA-MB-157)
Protocol: (§6) Western blot: 5×10^5 cells, in 10 ml of medium, were inoculated in the 100 mm Petri dishes. After 24 hours of rest, the cells were incubated with 100 nM of HHT for different times, staggered for 2 hours and 48 hours. Then, the cells were washed and lysed directly into the dishes (without trypsinization) using RIPA buffer (Pierce-ThermoScientific), containing a mixture of protease inhibitors (Sigma). The protein concentration was determined by the method of Bradford. Protein electrophoresis was performed in 12-30% polyacrylamide gels. After transfer to the PVDF membrane, the revelation was carried out by ECL Plus (Amersham).

XIAP = test: as above; type: cell-based; conditions: 100 nM HHT; compared with Mcl-1
Protocol: as §6

survivin = test: as above; type: cell-based; conditions: 100 nM HHT; CAL-51; same effect as for Mcl-1 (very fast and strong drop)
Protocol: as §6

[14] = tested on: apoptosis regulatory proteins in MDA-MB-231; test: Western blot, expression of apoptosis regulatory proteins in line MDA-MB-231; type: cell-based; conditions: 100 nM HHT
Protocol: as §6

MDA-MB-231 xenograft = test: In vivo study on MDA-MB-231 triple negative breast tumor xenograft; design: species or system Swiss nudes immuno-depressed mice (nu/nu); conditions: 1 mg of HHT (as salt) per kg subcutaneously twice daily for 8 days; difference between day 0 and day 10; control group increased 20-30%
Protocol: The efficacy of homoharringtonine in vivo on xenografts of the triple-negative breast cancer line (MDA-MB-231), was performed on Swiss nudes immuno-depressed mice (nu/nu), […]. −12 weeks. The tumor was grafted in 16 animals, by injecting 5×10^6 cells of the tumor strain, subcutaneously in the dorsal region, until a tumor volume of 200-300 mm 3 was obtained. 8 mice received 1 mg of HHT (as salt) per kg subcutaneously twice daily for 8 days. The control group (7 mice) received only physiological saline in the same dosage as HHT. Mice were sacrificed 3 days after stopping treatment, recovered xenografts, and measured tumor size. The tissues were then formalin-fixed and paraffin-embedded for subsequent histological analyzes.

[15] = 24 h, 48 h, 72 h, regardless of the concentrations (p>0.05)
[16] = Homo sapiens, 24 hours, range given for 3 out of 4 lines analyzed

In the case of `COC(=O)C[C@](O)(CCC(C)(C)O)C(=O)O[C@@H]1C(OC)=C[C@]23CCCN2CCc2cc4c(cc2[C@H]13)OCO4` [(1a), harringtonine], the Activity [1] is listed as “anticancer”.

In the case of `COC(=O)CC(O)(CC(C)(C)O)C(=O)OC1C(OC)=CC23CCCN2CCc2cc4c(cc2C13)OCO4` (stereo not shown) [(1c), norharringtonine], the Activity [1] is listed as “none”.

For `COC(=O)C[C@](O)(CCC(C)C)C(=O)O[C@@H]1C(OC)=C[C@]23CCCN2CCc2cc4c(cc2[C@H]13)OCO4` [(1d), deoxyharringtonine], the Activity [1] is listed as “anticancer”.

For `COC(=O)CC(O)(CCCCC(C)(C)O)C(=O)OC1C(OC)=CC23CCCN2CCc2cc4c(cc2C13)OCO4` (stereo not shown) [(1e), bishomoharringtonine], the Activity [1] is listed as “none”.

For `COC(=O)[C@@H](O)[C@](O)(CCC(C)C)C(=O)O[C@@H]1C(OC)=C[C@]23CCCN2CCc2cc4c(cc2[C@H]13)OCO4` [(1f), isoharringtonine], the Activity [1] is given as “none”.

In the case of `COC(=O)C[C@](O)(CCCC(C)(C)O)C(=O)O[C@@H]1C(OC)=C[C@]23CCCN2CCc2cc4c(cc2[C@H]13)OCO4` [HHT, homoharringtonine], the “effect on proliferation versus incubation time” value (CAL-51 [2]; [15]) is reported as “independent of the incubation time”, the IC50 (CAL-51 [2]; [16]) is reported as 15.9 to 21.3 nM and the “effect on proliferation versus incubation time” value (MDA-MB-157 [3]; [15]) is reported as “independent of the incubation time”. For the same compound, the IC50 (MDA-MB-157 [3]; [16]) was 15.9 to 21.3 nM, the viability at 0.05 µM (MDA-MB-231 [4]; MDA-MB-231, 24 h) was 58.1 ± 14.5% and the viability at 0.1 µM (MDA-MB-231 [4]; MDA-MB-231, 24 h) was 41.7 ± 13.3%. It also gave a viability at 0.05 µM (MDA-MB-231 [4]; MDA-MB-231, 72 h) of 25.9 ± 2.4%, a viability at 0.1 µM (MDA-MB-231 [4]; MDA-MB-231, 72 h) of 18.7 ± 4.8% and an IC50 (MDA-MB-231 [4]; MDA-MB-231, 24 hours) of 80.5 nM. The “effect on proliferation versus incubation time” value (MDA-MB-468 [5]; [15]) was “independent of the incubation time”, the IC50 (MDA-MB-468 [5]; [16]) was 15.9 to 21.3 nM and the “effect on the cell cycle” value (CAL-51 [6]) was “accumulation of CAL-51 and MDA-MB-157 cells in Set GO/G1 phase”. The “effect on the cell cycle” value (MDA-MB-157 [7]) was “accumulation of CAL-51 and MDA-MB-157 cells in Set GO/G1 phase”, the “effect on the cell cycle” value (MDA-MB-231 [8]) was “stopped in the G2/M phase” and the “effect on the cell cycle” value (MDA-MB-468 [9]) was “stopped in the G2/M phase”. The “effect on apoptosis (% of cells in early and late apoptosis)” value (CAL-51 [10]) was “induces apoptosis of CAL-51, MDA-MB-468 and MDA-MB-157 cells in a concentration and time dependent manner”, the “effect on apoptosis (% of cells in early and late apoptosis)” value (MDA-MB-157 [11]) was “induces apoptosis of CAL-51, MDA-MB-468 and MDA-MB-157 cells in a concentration and time dependent manner” and the “effect on apoptosis (% of cells in early and late apoptosis)” value (MDA-MB-231 [12]) was “no significant apoptosis was observed”. The “effect on apoptosis (% of cells in early and late apoptosis)” value (MDA-MB-468 [13]) was “induces apoptosis of CAL-51, MDA-MB-468 and MDA-MB-157 cells in a concentration and time dependent manner”, the “level of Mcl-1” value (Mcl-1) was “very fast and strong drop” and the “reduction in the XIAP rate” value (XIAP) was “more modest and occurred later”. For the same compound, the level of survivin (survivin) was “same effect”, the “level of apoptosis regulatory proteins” value [14] was “no effect” and the “decrease in tumor volume” value (MDA-MB-231 xenograft) was 20 to 60%. For the same compound, the Activity [1] was “anticancer”.

In the case of neoharringtonine [(1g)], the Activity [1] is given as “cytotoxic”.
